According to the CheMixHub viscosity set:
“And” between values parts separate entries of the source, which are not always exact repeats. Equal entries are not always repeated.

Test: xn = mol fraction of the nth substance listed

COc1ccccc1 + c1ccccc1
101.33 kPa
Conditions	viscosity
293.15 K, x1 = 0.0945	0.7297 mPa·s
293.15 K, x1 = 0.1951	0.7551 mPa·s
293.15 K, x1 = 0.2984	0.8001 mPa·s
293.15 K, x1 = 0.3942	0.8413 mPa·s
293.15 K, x1 = 0.5178	0.9017 mPa·s
293.15 K, x1 = 0.6157	0.9434 mPa·s
293.15 K, x1 = 0.6574	0.9641 mPa·s
293.15 K, x1 = 0.8116	1.052 mPa·s
293.15 K, x1 = 0.906	1.097 mPa·s
298.15 K, x1 = 0.0945	0.6765 mPa·s
298.15 K, x1 = 0.1	0.635 mPa·s
298.15 K, x1 = 0.1025	0.6396 mPa·s
298.15 K, x1 = 0.1951	0.7095 mPa·s
298.15 K, x1 = 0.2	0.671 mPa·s and 0.671 mPa·s
298.15 K, x1 = 0.2004	0.6806 mPa·s
298.15 K, x1 = 0.2984	0.7437 mPa·s
298.15 K, x1 = 0.3003	0.7121 mPa·s
298.15 K, x1 = 0.3942	0.7772 mPa·s
298.15 K, x1 = 0.4	0.742 mPa·s
298.15 K, x1 = 0.402	0.7553 mPa·s
298.15 K, x1 = 0.4985	0.7849 mPa·s
298.15 K, x1 = 0.5	0.782 mPa·s and 0.782 mPa·s
298.15 K, x1 = 0.5178	0.8397 mPa·s
298.15 K, x1 = 0.6	0.821 mPa·s
298.15 K, x1 = 0.6157	0.88 mPa·s
298.15 K, x1 = 0.6574	0.9047 mPa·s
298.15 K, x1 = 0.699	0.8709 mPa·s
298.15 K, x1 = 0.8	0.907 mPa·s
298.15 K, x1 = 0.805	0.9112 mPa·s
298.15 K, x1 = 0.8116	0.9812 mPa·s
298.15 K, x1 = 0.9013	0.9506 mPa·s
303.15 K, x1 = 0.1025	0.6033 mPa·s
303.15 K, x1 = 0.2004	0.6433 mPa·s
303.15 K, x1 = 0.3003	0.6712 mPa·s
303.15 K, x1 = 0.402	0.7045 mPa·s
303.15 K, x1 = 0.4985	0.738 mPa·s
303.15 K, x1 = 0.5991	0.7765 mPa·s
303.15 K, x1 = 0.699	0.8121 mPa·s
303.15 K, x1 = 0.805	0.8545 mPa·s
303.15 K, x1 = 0.9013	0.8883 mPa·s
308.15 K, x1 = 0.1	0.556 mPa·s
308.15 K, x1 = 0.1025	0.5736 mPa·s
308.15 K, x1 = 0.2	0.587 mPa·s
308.15 K, x1 = 0.2004	0.6196 mPa·s
308.15 K, x1 = 0.3003	0.6447 mPa·s
308.15 K, x1 = 0.4	0.649 mPa·s
308.15 K, x1 = 0.402	0.675 mPa·s
308.15 K, x1 = 0.4985	0.7086 mPa·s
308.15 K, x1 = 0.5	0.68 mPa·s
308.15 K, x1 = 0.5991	0.7422 mPa·s
308.15 K, x1 = 0.6	0.715 mPa·s
308.15 K, x1 = 0.699	0.7763 mPa·s
308.15 K, x1 = 0.8	0.785 mPa·s
308.15 K, x1 = 0.805	0.8167 mPa·s
308.15 K, x1 = 0.9013	0.8509 mPa·s
313.15 K, x1 = 0.1025	0.5191 mPa·s
313.15 K, x1 = 0.2004	0.5555 mPa·s
313.15 K, x1 = 0.3003	0.5884 mPa·s
313.15 K, x1 = 0.402	0.6099 mPa·s
313.15 K, x1 = 0.4985	0.6337 mPa·s
313.15 K, x1 = 0.5991	0.669 mPa·s
313.15 K, x1 = 0.699	0.7007 mPa·s
313.15 K, x1 = 0.805	0.7318 mPa·s
313.15 K, x1 = 0.9013	0.7626 mPa·s
318.15 K, x1 = 0.1	0.489 mPa·s
318.15 K, x1 = 0.2	0.517 mPa·s
318.15 K, x1 = 0.4	0.57 mPa·s
318.15 K, x1 = 0.5	0.597 mPa·s
318.15 K, x1 = 0.6	0.626 mPa·s
318.15 K, x1 = 0.8	0.684 mPa·s
323.15 K, x1 = 0.1	0.46 mPa·s
323.15 K, x1 = 0.2	0.485 mPa·s and 0.485 mPa·s
323.15 K, x1 = 0.4	0.533 mPa·s
323.15 K, x1 = 0.5	0.559 mPa·s and 0.559 mPa·s
323.15 K, x1 = 0.6	0.585 mPa·s
323.15 K, x1 = 0.8	0.64 mPa·s

O=S(=O)([O-])[O-].[Ca+2] + O
100 kPa
Conditions	viscosity [mPa·s]
303.15 K, x1 = 0.000281	0.7976
323.15 K, x1 = 0.000279	0.557

CCCCCCCCC(=O)O + CCCCCCCCCCCC(=O)O
100 kPa, x2 = 0.25
Conditions	viscosity [mPa·s]
293.15 K	10.12
298.15 K	8.636
303.15 K	7.443
308.15 K	6.47
313.15 K	5.669
318.15 K	5.003
323.15 K	4.444

Cc1ccccc1 + CC#N
Conditions	viscosity [mPa·s]
298.15 K, 101.3 kPa, x1 = 0.04717	0.348
298.15 K, 101.3 kPa, x1 = 0.1002	0.35
298.15 K, 101.3 kPa, x1 = 0.1603	0.365
298.15 K, 101.3 kPa, x1 = 0.229	0.38
298.15 K, 101.3 kPa, x1 = 0.3082	0.403
298.15 K, 101.3 kPa, x1 = 0.4006	0.427
298.15 K, 101.3 kPa, x1 = 0.5097	0.457
298.15 K, 101.3 kPa, x1 = 0.6406	0.487
298.15 K, 101.3 kPa, x1 = 0.8004	0.527
298.17 K, 100 kPa, x2 = 0.5	0.4526
298.19 K, 100 kPa, x2 = 0.25	0.5085
303 K, 100 kPa, x2 = 0.126	0.5031
303 K, 100 kPa, x2 = 0.2324	0.4911
303 K, 100 kPa, x2 = 0.3293	0.4787
303 K, 100 kPa, x2 = 0.4233	0.4725
303 K, 100 kPa, x2 = 0.5023	0.4621
303 K, 100 kPa, x2 = 0.6588	0.4355
303 K, 100 kPa, x2 = 0.7316	0.4231
303 K, 100 kPa, x2 = 0.876	0.4007
308 K, 100 kPa, x2 = 0.126	0.4825
308 K, 100 kPa, x2 = 0.2324	0.4755
308 K, 100 kPa, x2 = 0.3293	0.4625
308 K, 100 kPa, x2 = 0.4233	0.4525
308 K, 100 kPa, x2 = 0.5023	0.4436
308 K, 100 kPa, x2 = 0.6588	0.4166
308 K, 100 kPa, x2 = 0.7316	0.4038
308 K, 100 kPa, x2 = 0.876	0.3715
308.15 K, 101 kPa, x1 = 0.1038	0.3334
308.15 K, 101 kPa, x1 = 0.2993	0.3692
308.15 K, 101 kPa, x1 = 0.3885	0.3887
308.15 K, 101 kPa, x1 = 0.5986	0.424
308.15 K, 101 kPa, x1 = 0.6907	0.4457
308.15 K, 101 kPa, x1 = 0.7946	0.4617
308.15 K, 101 kPa, x1 = 0.8925	0.4789
308.15 K, 101.3 kPa, x1 = 0.04717	0.309
308.15 K, 101.3 kPa, x1 = 0.1002	0.309
308.15 K, 101.3 kPa, x1 = 0.1603	0.33
308.15 K, 101.3 kPa, x1 = 0.3082	0.375
308.15 K, 101.3 kPa, x1 = 0.4006	0.389
308.15 K, 101.3 kPa, x1 = 0.5097	0.421
308.15 K, 101.3 kPa, x1 = 0.6406	0.434
308.15 K, 101.3 kPa, x1 = 0.8004	0.45
313 K, 100 kPa, x2 = 0.126	0.4655
313 K, 100 kPa, x2 = 0.2324	0.4551
313 K, 100 kPa, x2 = 0.3293	0.4425
313 K, 100 kPa, x2 = 0.4233	0.4311
313 K, 100 kPa, x2 = 0.5023	0.4179
313 K, 100 kPa, x2 = 0.6588	0.4006
313 K, 100 kPa, x2 = 0.7316	0.3878
313 K, 100 kPa, x2 = 0.876	0.3512
323.05 K, 100 kPa, x2 = 0.75	0.308
323.08 K, 100 kPa, x2 = 0.25	0.3879
323.09 K, 100 kPa, x2 = 0.5	0.3497

CCOCCn1cc[n+](C)c1.C[C@@H](O)[C@H](N)C(=O)[O-] + O
Conditions	viscosity [mPa·s]
298.15 K, 100 kPa, x2 = 0.492	991.4

C1CCOC1 + CO
Conditions	viscosity
298 K, 101 kPa, x1 = 0.0397	0.527 mPa·s
298 K, 101 kPa, x1 = 0.0463	0.5241 mPa·s
298 K, 101 kPa, x1 = 0.0629	0.5179 mPa·s
298 K, 101 kPa, x1 = 0.0984	0.5053 mPa·s
298 K, 101 kPa, x1 = 0.1593	0.49 mPa·s
298 K, 101 kPa, x1 = 0.2295	0.4758 mPa·s
298 K, 101 kPa, x1 = 0.3081	0.463 mPa·s
298 K, 101 kPa, x1 = 0.3952	0.4525 mPa·s
298 K, 101 kPa, x1 = 0.5068	0.4445 mPa·s
298 K, 101 kPa, x1 = 0.6498	0.4398 mPa·s
298 K, 101 kPa, x1 = 0.8052	0.4449 mPa·s
298.15 K, 101 kPa, x1 = 0.3	0.4761 mPa·s
298.15 K, 101 kPa, x1 = 0.3076	0.5025 mPa·s and 0.5015 mPa·s and 0.515 mPa·s
303 K, 101.3 kPa, x1 = 0.0471	0.474 mPa·s
303 K, 101.3 kPa, x1 = 0.1	0.452 mPa·s
303 K, 101.3 kPa, x1 = 0.1599	0.435 mPa·s
303 K, 101.3 kPa, x1 = 0.2285	0.406 mPa·s
303 K, 101.3 kPa, x1 = 0.3075	0.38 mPa·s
303 K, 101.3 kPa, x1 = 0.3998	0.373 mPa·s
303 K, 101.3 kPa, x1 = 0.509	0.356 mPa·s
303 K, 101.3 kPa, x1 = 0.6399	0.356 mPa·s
303 K, 101.3 kPa, x1 = 0.7995	0.384 mPa·s
313 K, 101.3 kPa, x1 = 0.0471	0.395 mPa·s
313 K, 101.3 kPa, x1 = 0.1	0.36 mPa·s
313 K, 101.3 kPa, x1 = 0.1599	0.35 mPa·s
313 K, 101.3 kPa, x1 = 0.2285	0.333 mPa·s
313 K, 101.3 kPa, x1 = 0.3075	0.31 mPa·s
313 K, 101.3 kPa, x1 = 0.3998	0.294 mPa·s
313 K, 101.3 kPa, x1 = 0.509	0.3 mPa·s
313 K, 101.3 kPa, x1 = 0.6399	0.294 mPa·s
313 K, 101.3 kPa, x1 = 0.7995	0.332 mPa·s

c1ccc2ccccc2c1 + ClC(Cl)(Cl)Cl
viscosity [mPa·s], 101 kPa
Conditions	303.15 K	308.15 K	313.15 K	318.15 K	323.15 K
x1 = 0.2515	1.085	1	0.9335	0.8708	0.8138
x1 = 0.4038	–	–	1.109	1.036	0.9672

COc1ccccc1 + CCCCCO
viscosity [mPa·s], 101.33 kPa
Conditions	x1 = 0.1	x1 = 0.1998	x1 = 0.3002	x1 = 0.4001	x1 = 0.5	x1 = 0.6002	x1 = 0.6998	x1 = 0.6999	x1 = 0.8001	x1 = 0.9
303.15 K	2.369	1.911	1.658	1.447	1.26	1.109	–	1.046	0.952	0.914
313.15 K	1.841	1.522	1.326	1.173	1.022	0.929	–	0.862	0.814	0.791
323.15 K	1.403	1.172	1.062	0.953	0.853	0.792	0.745	–	0.708	0.696
